The results in this text go back to patent US6893665B2, “Formulations for treating or preventing mucositis” (Orapharma, Inc., priority 1999, dated 2005).

The test relates to mucositis induced by acute radiation exposure of the cheek pouch. Briefly: Hamster cheek pouch model of radiation-induced oral mucositis, topical dosing, clinical scoring 0-5. In kind it is in vivo. Conditions: hamsters, 35 Gy on Day 0, 0.1 mL of 0.1 mg/mL aqueous solution topically three times a day for 22 days; for mucositis scores (clinical scoring 0-5) versus placebo control group: compared with solution without drug. On the procedure: Hamsters were randomly assigned to treatment groups with eight (8) animals per group. Each group was treated either with a drug solution or a control, water.
Animals were dosed three times a day for 22 days. The first dose was applied on day —1. Either a solution of the drug or water alone was applied in a volume of 0.1 ml three times per day.
Mucositis was induced by acute radiation exposure of the check pouch. A single dose of radiation (35 Gy/dose) was administered to all animals on Day 0. Prior to irradiation, animals were anesthetized with an intraperiotoneal injection of sodium pentobarbital (80 mg/kg) and the left buccal pouch was everted, fixed and isolated using a lead shield.
Beginning on day 6 and continuing every other day up to day 28, the cheek pouch was photographed. On days that photographs were taken, prior to the first dosing of the day, the animals were anesthetized using an inhalation anesthetic and the left cheek pouch of each animal was rinsed vigorously with sterile water to remove residual food debris or foreign contamination and blotted dry with a gauze sponge. The appearance of the cheek pouch was scored visually by comparison to a validated photographic scale, ranging from 0 for normal to 5 for severe ulceration (clinical scoring). In descriptive terms, this scale is defined as follows: […]
A score of 1-2 represents mild stage of the disease, whereas a score of 3-5 indicates moderate to severe mucositis.

Where a name gives a salt, the structure may show the parent alone.

With `CN(C)[C@@H]1C(O)=C(C(N)=O)C(=O)[C@@]2(O)C(O)=C3C(=O)c4c(O)cccc4[C@@](C)(O)[C@H]3C[C@@H]12` [tetracycline hydrochloride], the “reduction in the number of animal days with scores of 3 or more, relative to the control group” value was “more than 75%” and the “mucositis scores (clinical scoring 0-5) versus placebo control group” value is “Significantly lower scores”.

With meclocycline sulfosalicylate, the “reduction in the number of animal days with scores of 3 or more, relative to the control group” value is “more than 75%” and the “mucositis scores (clinical scoring 0-5) versus placebo control group” value is given as “Significantly lower scores”.
